One block for each molecule: values may come before it.
Key:
Microsporum audouinni [1] = assay: Agar dilution method, growth on Sabouraud dextrose agar slants; format: cell-based, Microsporum audouinii; parameters: key: +++: Maximum Fungal Growth; ++: Moderate Fungal Growth; +: Minimum Fungal Growth; +/−: Very little Fungal Growth; −: No Fungal Growth; conditions: 12th day after inoculation
Method in brief: (§1)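 Readout: fungal growth, noted on alternate days across a 10-12 day incubation at 25-28 °C. Test slants were Sabouraud dextrose agar with compound incorporated from DMSO before solidification.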

Trichophyton tonsuran = assay: as above; format: cell-based, Trichophyton tonsurans; parameters: key: +++: Maximum Fungal Growth; ++: Moderate Fungal Growth; +: Minimum Fungal Growth; +/−: Very little Fungal Growth; −: No Fungal Growth; conditions: 12th day after inoculation
Method in brief: as §1

Microsporum audouinii = assay: Summary of anti-fungal assays (direct addition, agar dilution, liquid culture); format: cell-based; conditions: stated in words (Tables 1a/1b, text to Table 5)
Protocol: (§2) This example summarizes the results of various other assays of the anti-fungal activity of betulin derivatives. Table 5 summarizes results using different assay methods—direct addition, agar dilution, and direct addition to liquid culture, as disclosed in the previous three Examples. In some cases, only one type of assay was done with a compound. In other cases, the compound was tested by multiple assays.

Pityrosporum ovale [2] = assay: Direct addition into the Pityrosporum agar; format: cell-based; parameters: key to Pityrosporum ovale growth: +++: Maximum Growth; ++: Moderate Growth; +: Minimum Growth; +/−: Very Little Growth; −: No Growth; conditions: for Growth inhibition of Pityrosporum ovale by the direct addition method: 4 mg/ml; for Pityrosporum ovale growth: 4 mg/ml in the agar, 18 hours after inoculation
Protocol: Direct addition method. Sabouraud dextrose agar was prepared according to the manufacturer's instructions and 5.0 ml was dispensed in each 100×25 mm tube. The tubes were autoclaved. To each tube containing 5.0 ml of liquid agar at 45° C., 20 mg of solid test compound was added, to give a final concentration of 4 mg/ml. The agar was solidified in slants. The fungal cultures were then innoculated. […]

P. ovale = assay: Summary of anti-fungal assays (direct addition, agar dilution, liquid culture); format: cell-based, Pityrosporum ovale; conditions: stated in words (Tables 1a/1b, text to Table 5)
Protocol: as §2

Trichophyton rubrum [3] = assay: Direct addition method, solid compound in Sabouraud dextrose agar; format: cell-based; parameters: key: +++: Maximum Fungal Growth; ++: Moderate Fungal Growth; +: Minimum Fungal Growth; +/−: Very little Fungal Growth; −: No Fungal Growth; conditions: 4 mg/mL of agar; 12th day after inoculation
Method in brief: (§3)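 Fungal growth read at day 12; scored every 2nd day over 10-12 days at 25-28° C. Compound added as solid to molten Sabouraud dextrose agar (45° C.), final 4 mg/ml; agar slanted, then inoculated.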

Microsporum canis [4] = assay: as above; format: cell-based; parameters: key: +++: Maximum Fungal Growth; ++: Moderate Fungal Growth; +: Minimum Fungal Growth; +/−: Very little Fungal Growth; −: No Fungal Growth; conditions: 4 mg/mL of agar; 12th day after inoculation
Method in brief: as §3

Epidermophyton floccosum [5] = assay: as above; format: cell-based; parameters: key: +++: Maximum Fungal Growth; ++: Moderate Fungal Growth; +: Minimum Fungal Growth; +/−: Very little Fungal Growth; −: No Fungal Growth; conditions: 4 mg/mL of agar; 12th day after inoculation
Method in brief: as §3

Pityrosporum ovale [6] = assay: as above; format: cell-based; parameters: key: +++: Maximum Fungal Growth; ++: Moderate Fungal Growth; +: Minimum Fungal Growth; +/−: Very little Fungal Growth; −: No Fungal Growth; conditions: 4 mg/mL of agar; 12th day after inoculation
Method in brief: as §3

Epidermophyton floccosum [7] = assay: Agar dilution method, growth on Sabouraud dextrose agar slants; format: cell-based; parameters: key to Fungal growth: +++: Maximum Fungal Growth; ++: Moderate Fungal Growth; +: Minimum Fungal Growth; +/−: Very little Fungal Growth; −: No Fungal Growth; conditions: for Fungal growth: 12th day after inoculation
Method in brief: as §1

Microsporum audouinni [8] = assay: Direct addition method, solid compound in Sabouraud dextrose agar; format: cell-based, Microsporum audouinii; parameters: key to Fungal growth: +++: Maximum Fungal Growth; ++: Moderate Fungal Growth; +: Minimum Fungal Growth; +/−: Very little Fungal Growth; −: No Fungal Growth; conditions: 4 mg/mL of agar; 12th day after inoculation
Method in brief: as §3

[9] = tested on: Trichophyton mentagrophyte; assay: Agar dilution method, growth on Sabouraud dextrose agar slants; format: cell-based, Trichophyton mentagrophytes; parameters: key to Fungal growth: +++: Maximum Fungal Growth; ++: Moderate Fungal Growth; +: Minimum Fungal Growth; +/−: Very little Fungal Growth; −: No Fungal Growth; conditions: 12th day after inoculation
Method in brief: as §1

Trichophyton rubrum [10] = assay: as above; format: cell-based; parameters: key: +++: Maximum Fungal Growth; ++: Moderate Fungal Growth; +: Minimum Fungal Growth; +/−: Very little Fungal Growth; −: No Fungal Growth; conditions: 12th day after inoculation
Method in brief: as §1

Microsporum gypseum [11] = assay: as above; format: cell-based; parameters: key: +++: Maximum Fungal Growth; ++: Moderate Fungal Growth; +: Minimum Fungal Growth; +/−: Very little Fungal Growth; −: No Fungal Growth; conditions: 12th day after inoculation
Method in brief: as §1

Microsporum canis [12] = assay: as above; format: cell-based; parameters: key: +++: Maximum Fungal Growth; ++: Moderate Fungal Growth; +: Minimum Fungal Growth; +/−: Very little Fungal Growth; −: No Fungal Growth; conditions: 12th day after inoculation
Method in brief: as §1

Pityrosporum ovale [13] = assay: as above; format: cell-based; parameters: key: +++: Maximum Fungal Growth; ++: Moderate Fungal Growth; +: Minimum Fungal Growth; +/−: Very little Fungal Growth; −: No Fungal Growth; conditions: 12th day after inoculation
Method in brief: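 SDA slants containing test compound (added from DMSO solution into 45 °C agar); inoculated with fungal culture; 25-28 °C, 10-12 d; growth read every 2nd day.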

Trichophyton rubrum [14] = assay: Summary of anti-fungal assays (direct addition, agar dilution, liquid culture); format: cell-based; conditions: stated in words (Tables 1a/1b, text to Table 5)
Protocol: as §2

[15] = tested on: Trichophyton mentagrophytes; assay: as above; format: cell-based; conditions: stated in words (Tables 1a/1b, text to Table 5)
Protocol: as §2

Epidermophyton floccosum [16] = assay: as above; format: cell-based; conditions: stated in words (Tables 1a/1b, text to Table 5)
Protocol: as §2

Trichophyton tonsurans = assay: as above; format: cell-based; conditions: stated in words (Tables 1a/1b, text to Table 5)
Protocol: as §2

Microsporum gypseum [17] = assay: as above; format: cell-based; conditions: stated in words (Tables 1a/1b, text to Table 5)
Protocol: as §2

melting point: 167 to 170 °C (dec.)
SMILES: C=C(C)[C@@H]1CCC2(CO)CC[C@@]3(C)C(CCC4[C@@]5(C)C=C(O)C(=O)C(C)(C)C5CC[C@]43C)C12 (stereo partly drawn)

SMILES: CC1(C)CCC23CC[C@@]4(C)C(CCC5[C@@]6(C)CC[C@H](O)C(C)(C)C6CC[C@]54C)C2C1OC3 (stereo partly drawn) [Allobetulin, oleanan-3β-ol-28,19-β-ether]
Fungal growth (Microsporum audouinni [1]; 9 μg/ml): +/−
Fungal growth (Microsporum audouinni [1]; 19 μg/ml): −
Fungal growth (Microsporum audouinni [1]; 38 μg/ml): −
Fungal growth (Microsporum audouinni [1]; 75 μg/ml): −
Fungal growth (Trichophyton tonsuran; 9 μg/ml): +++
Fungal growth (Trichophyton tonsuran; 19 μg/ml): ++
Fungal growth (Trichophyton tonsuran; 38 μg/ml): ++
Fungal growth (Trichophyton tonsuran; 75 μg/ml): −
Active against Microsporum audouinii (Microsporum audouinii): Microsporum audouinii
Growth inhibition of Pityrosporum ovale by the direct addition method (Pityrosporum ovale [2]): inhibited the growth
Pityrosporum ovale growth (Pityrosporum ovale [2]): +/−
Active against Pityrosporum ovale (P. ovale): Pityrosporum ovale
Fungal growth (Trichophyton rubrum [3]): +
Fungal growth (Microsporum canis [4]): ++
Fungal growth (Epidermophyton floccosum [5]): −
Fungal growth (Pityrosporum ovale [6]): −
Fungal growth (Epidermophyton floccosum [7]; 9 μg/ml): ++
Fungal growth (Epidermophyton floccosum [7]; 19 μg/ml): +
Fungal growth (Epidermophyton floccosum [7]; 38 μg/ml): +
Fungal growth (Epidermophyton floccosum [7]; 75 μg/ml): −
Fungal growth (Microsporum audouinni [8]): +
Fungal growth ([9]; 9 μg/ml): ++
Fungal growth ([9]; 19 μg/ml): +
Fungal growth ([9]; 38 μg/ml): +
Fungal growth ([9]; 75 μg/ml): −
Fungal growth (Trichophyton rubrum [10]; 9 μg/ml): ++
Fungal growth (Trichophyton rubrum [10]; 19 μg/ml): ++
Fungal growth (Trichophyton rubrum [10]; 38 μg/ml): +
Fungal growth (Trichophyton rubrum [10]; 75 μg/ml): −
Fungal growth (Microsporum gypseum [11]; 9 μg/ml): +++
Fungal growth (Microsporum gypseum [11]; 19 μg/ml): ++
Fungal growth (Microsporum gypseum [11]; 38 μg/ml): ++
Fungal growth (Microsporum gypseum [11]; 75 μg/ml): −
Fungal growth (Microsporum canis [12]; 9 μg/ml): +++
Fungal growth (Microsporum canis [12]; 19 μg/ml): ++
Fungal growth (Microsporum canis [12]; 38 μg/ml): ++
Fungal growth (Microsporum canis [12]; 75 μg/ml): −
Fungal growth (Pityrosporum ovale [13]; 9 μg/ml): +++
Fungal growth (Pityrosporum ovale [13]; 19 μg/ml): +++
Fungal growth (Pityrosporum ovale [13]; 38 μg/ml): ++
Fungal growth (Pityrosporum ovale [13]; 75 μg/ml): −

melting point: 312.5 to 315.4 °C (dec.)
SMILES: CC(=O)OC1CC[C@@]2(C)C(CC[C@]3(C)C2CCC2C4C5OC(=O)C4(CCC5(C)C)CC[C@@]23C)C1(C)C (stereo partly drawn) [Allobetulinlactone-3-acetate, oleanan-28,19-β-lactone-3-acetate]

SMILES: C=C(C)C1CCC2(COC(=O)CC(C)(C)CC(=O)O)CCC3(C)C(CCC4C5(C)CCC(OC(=O)CC(C)(C)CC(=O)O)C(C)(C)C5CCC43C)C12 (stereo not drawn) [Betulin-3,28-di(3′,3′-dimethyl)glutarate]
Active against Trichophyton rubrum (Trichophyton rubrum [14]): Trichophyton rubrum,
Active against Microsporum audouinii (Microsporum audouinii): Microsporum audouinii,
Active against Trichophyton mentagrophytes [15]: Trichophyton mentagrophytes,
Active against Epidermophyton floccosum (Epidermophyton floccosum [16]): against Epidermophyton floccosum

SMILES: C=C(C)[C@@H]1CC[C@]2(COC(=O)c3ccccc3C(=O)O)CC[C@]3(C)[C@H](CC[C@@H]4[C@@]5(C)CC[C@H](OC(=O)c6ccccc6C(=O)O)C(C)(C)[C@@H]5CC[C@]43C)[C@@H]12 [Betulin-3,28-diphthalate]
Fungal growth (Microsporum audouinni [1]; 125 μg/ml): ++
Fungal growth (Microsporum audouinni [1]; 250 μg/ml): +
Fungal growth (Microsporum audouinni [1]; 500 μg/ml): −
Fungal growth (Microsporum audouinni [1]; 1000 μg/ml): −
Fungal growth (Trichophyton tonsuran; 125 μg/ml): +++
Fungal growth (Trichophyton tonsuran; 250 μg/ml): ++
Fungal growth (Trichophyton tonsuran; 500 μg/ml): +/−
Fungal growth (Trichophyton tonsuran; 1000 μg/ml): −
Active against Trichophyton tonsurans (Trichophyton tonsurans): Trichophyton tonsurans
Active against Microsporum audouinii (Microsporum audouinii): Microsporum audouinii
Active against Microsporum gypseum (Microsporum gypseum [17]): Microsporum gypseum
Active against Epidermophyton floccosum (Epidermophyton floccosum [16]; listed as betulin-3,28-diphthalate): against Epidermophyton floccosum
Fungal growth (Epidermophyton floccosum [7]; 125 μg/ml): ++
Fungal growth (Epidermophyton floccosum [7]; 250 μg/ml): ++
Fungal growth (Epidermophyton floccosum [7]; 500 μg/ml): +/−
Fungal growth (Epidermophyton floccosum [7]; 1000 μg/ml): −
best antifungal or anti-yeast activity by the agar dilution method (Epidermophyton floccosum [7]; against Epidermophyton floccosum): against Epidermophyton floccosum
Fungal growth ([9]; 125 μg/ml): ++
Fungal growth ([9]; 250 μg/ml): +
Fungal growth ([9]; 500 μg/ml): −
Fungal growth ([9]; 1000 μg/ml): −
Fungal growth (Trichophyton rubrum [10]; 125 μg/ml): ++
Fungal growth (Trichophyton rubrum [10]; 250 μg/ml): ++
Fungal growth (Trichophyton rubrum [10]; 500 μg/ml): +
Fungal growth (Trichophyton rubrum [10]; 1000 μg/ml): −
Fungal growth (Microsporum gypseum [11]; 125 μg/ml): ++
Fungal growth (Microsporum gypseum [11]; 250 μg/ml): +
Fungal growth (Microsporum gypseum [11]; 500 μg/ml): −
Fungal growth (Microsporum gypseum [11]; 1000 μg/ml): −
Fungal growth (Microsporum canis [12]; 125 μg/ml): ++
Fungal growth (Microsporum canis [12]; 250 μg/ml): +
Fungal growth (Microsporum canis [12]; 500 μg/ml): −
Fungal growth (Microsporum canis [12]; 1000 μg/ml): −
Fungal growth (Pityrosporum ovale [13]; 125 μg/ml): +++
Fungal growth (Pityrosporum ovale [13]; 250 μg/ml): +++
Fungal growth (Pityrosporum ovale [13]; 500 μg/ml): +++
Fungal growth (Pityrosporum ovale [13]; 1000 μg/ml): ++

SMILES: C=C(C)C1CCC2(COC(=O)CCCC(=O)O)CCC3(C)C(CCC4C5(C)CCC(O)C(C)(C)C5CCC43C)C12 (stereo not drawn) [Betulin-28-glutarate]
Active against Trichophyton rubrum (Trichophyton rubrum [14]): Trichophyton rubrum,
Active against Trichophyton tonsurans (Trichophyton tonsurans): Trichophyton tonsurans,
Active against Trichophyton mentagrophytes [15]: Trichophyton mentagrophytes,
Active against Epidermophyton floccosum (Epidermophyton floccosum [16]; listed as betulin-28-glutarate): against Epidermophyton floccosum
Growth inhibition of Pityrosporum ovale by the direct addition method (Pityrosporum ovale [2]): inhibited the growth
Pityrosporum ovale growth (Pityrosporum ovale [2]): +/−
Active against Pityrosporum ovale (P. ovale): Pityrosporum ovale,
Fungal growth (Trichophyton rubrum [3]): +
Fungal growth (Microsporum canis [4]): +
Fungal growth (Epidermophyton floccosum [5]): −
Fungal growth (Pityrosporum ovale [6]): −
Fungal growth (Microsporum audouinni [8]): +

Source: US6642217B2, “Triterpenes having human antifungal and antiyeast activity” (Naturtek, LLC, priority 2000, dated 2003)
